According to patent US7429564B2, “Oral insulin therapy” (Emisphere Technologies, Inc., priority 2002, dated 2008):

How the values were obtained:
[1] = Delivery agent plasma concentrations in humans after oral delivery agent capsules; format: in vivo, human; details: plasma; oral capsules, 750 mg, healthy human volunteers
Procedure: Delivery agents 1-3 were investigated for their ability to penetrate the GI mucosa. The plasma concentration of each delivery agent was measured in human subjects after oral administration of delivery agent loaded capsules as a measure of each delivery agent's penetration efficiency.
Blood sampling for plasma delivery agent concentration determination (2 mL in sodium heparin tube) were drawn 15 minutes before dosing, and at 5, 10, 15, 30, and 45 minutes and 1, 1.5, 2, 3, 4, 6, 8, and 12 hours post-dose (14 samples per treatment) for delivery agent measurements in all treatment groups.
Two 18-gauge IV lines were situated prior to dosing; one for blood sampling, and the other for potential infusion of 20% glucose for subjects in groups 2 and 3. The subjects in group 1 only had one cannula inserted. The blood samples were centrifuged at 3000 rpm for a period of fifteen minutes at a temperature from about 2° C. to 8° C., within one hour of sample collection. Using a plastic pipette and without disturbing the red cell layer, the plasma from the collection tube was pipetted in duplicate for each analysis, blood glucose, Human Insulin, C-peptide, delivery agent into pre-labeled polypropylene tubes. The samples were stored at −70° C. until analysis.
The indicated doses were ingested by healthy human volunteers and the plasma concentrations of the delivery agents were monitored over time and the area under the curve (AUC) calculated. […] Similarly, oral administration of 800 mg of delivery agent number 3 produced more than a 23 fold greater penetration of the GI mucosa in humans than did oral administration of 750 mg of delivery agent 2 having n equal to 9 alkyl.

serum glucose = test: Effective clinical dose of delivery agent in humans (delivery efficiency); format: in vivo, human; details: active agent heparin
Procedure: Next, delivery agents 1-3 were compared for the ability to efficiently transport an active agent across the GI mucosa in a biologically active form by determining the relationship between delivery agent dose, dose of active agent and the glucose response. The effective dose of delivery agent necessary to deliver a therapeutic dose of active agent and produce a therapeutic effect was measured. For delivery agent 3, the active agent was insulin, and the therapeutic effect was determined by the ability of the delivery agent/insulin combination to lower serum glucose by at least 10% within one hour post administration. For delivery agents 1 and 2, the active agent was heparin, and the therapeutic effect was determined by […]

[2] = Delivery agent plasma concentrations in monkeys after oral administration; format: in vivo; details: monkey, plasma, oral, 300 mg
Procedure: Similar results were obtained when delivery agents 1-3 were administered orally to monkeys and the plasma concentrations of the delivery agents monitored over time and the AUC calculated.

blood glucose = test: Example 7: postprandial blood glucose excursions after standardized breakfast, type 2 diabetic patients; format: in vivo, human
Procedure: A randomized, 3-period crossover, double-blind, double-dummy study was conducted in order to compare the effect (i.e., the postprandial pharmacokinetic and pharmacodynamic profiles) of an oral insulin formulation with that of s.c. administered short acting insulin on postprandial blood glucose excursions in Type 2 Diabetic subjects without any antidiabetic medication.
All patients received the same oral and SC injection treatments in a randomized sequence. […]
Blood samples for blood glucose determination (0.25 mL per sample) were taken at −1 min (baseline), 5 minutes after start of meal intake and thereafter in 5 minute intervals until 120 minutes, 10 minute intervals until 240 minutes, and 15 minute intervals until 360 minutes after start of meal intake (45 samples per session). Blood glucose concentrations were measured immediately after sample collection using an automated GOD method (Super GL Ambulance Glucose Analyzer, Ruhrtal Labortechnik, Delecke-Möhnesee, Germany). […]
For pharmacodynamic assessment, the following parameters were calculated: Maximal blood glucose excursion (BGmax), time to BGmax (tBGmax) Area under the blood glucose excursion curve in defined time-intervals (AUCBG 0-1h, AUCBG 0-2h, AUCBG 0-3h, AUCBG 0-4h, AUCBG 0-6h), maximal absolute blood glucose concentrations (BGabsmax), time to BGabsmax (tBGabsmax). […]

| Compound | AUC [1] | Effective clinical dose of delivery agent (serum glucose) | AUC [2] | Mean fasting blood glucose at baseline (−1 minute) (blood glucose; 12 U SC, dosed 15 min before meal, mean (range)) | Time to maximal glucose excursion (median) (blood glucose; SC 12 U, 15 min before meal) |
| --- | --- | --- | --- | --- | --- |
| O=C(O)CCCCCCCNC(=O)c1ccccc1O [1 (SNAC), reference compound] | 3500 ng·h/mL | 2400 Mg | 45 ng·h/mL |  |  |
| O=C(O)CCCCCCCCCNC(=O)c1ccccc1O [2 (SNAD), reference compound] | 2040 ng·h/mL | 1500 Mg | 82 ng·h/mL |  |  |
| SC short-acting insulin: subcutaneous injected short acting insulin, Humalog injection 100 U/ml from Eli Lilly |  |  |  | 143.11 mg/dL | 1.3 h |
